Calls of active or inactive are those of the source.
Legend:
SK-HEP1 [1] = experiment: Inhibition of PI3K signalling pathway in human SK-HEP1 cells assessed as inhibition of PI3K phosphorylation at 1.5 to 13.5 uM measured after 48 hrs by Western blotting analysis; type: cell-based; conditions: dose 1.5-13.5 µM
Huh-7 = experiment: Antimigratory activity against human Huh-7 cells assessed as up-regulation of E-cadherin expression at 0.55 to 2.2 uM incubated 24 hrs by Western blotting analysis; type: functional, cell-based; conditions: dose 0.55-2.2 µM
[2] = molecular target: Serine/threonine-protein kinase AKT (Homo sapiens) (UniProt P31751+Q9Y243+P31749); experiment: Inhibition of Akt signalling pathway in human Huh-7 cells assessed as inhibition of Akt phosphorylation at 0.9 to 8.1 uM measured after 48 hrs by Western blotting analysis; type: cell-based; conditions: dose 0.9-8.1 µM
SK-HEP1 [3] = experiment: Induction of apoptosis in human SK-HEP1 cells assessed as increase in cleaved caspase-3 expression at 1.5 to 13.5 uM incubated for 48 hrs by Western blotting analysis; type: functional, cell-based; conditions: dose 1.5-13.5 µM

Chain of Serine/threonine-protein kinase AKT (Homo sapiens) (P31749 whole entry, looked up): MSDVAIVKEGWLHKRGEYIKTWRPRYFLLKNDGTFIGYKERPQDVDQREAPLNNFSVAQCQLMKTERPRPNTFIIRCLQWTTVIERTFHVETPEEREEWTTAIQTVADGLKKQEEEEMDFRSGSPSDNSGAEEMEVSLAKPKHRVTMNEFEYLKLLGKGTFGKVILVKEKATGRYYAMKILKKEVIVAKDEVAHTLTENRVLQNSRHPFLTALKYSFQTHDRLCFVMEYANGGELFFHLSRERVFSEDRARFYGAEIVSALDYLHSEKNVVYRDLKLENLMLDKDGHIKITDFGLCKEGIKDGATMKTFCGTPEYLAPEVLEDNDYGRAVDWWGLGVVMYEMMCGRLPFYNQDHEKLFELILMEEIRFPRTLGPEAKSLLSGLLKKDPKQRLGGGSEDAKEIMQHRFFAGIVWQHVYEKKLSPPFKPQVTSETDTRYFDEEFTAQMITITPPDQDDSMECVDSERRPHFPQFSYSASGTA
Chain of Serine/threonine-protein kinase AKT (Homo sapiens) (P31751 whole entry, looked up): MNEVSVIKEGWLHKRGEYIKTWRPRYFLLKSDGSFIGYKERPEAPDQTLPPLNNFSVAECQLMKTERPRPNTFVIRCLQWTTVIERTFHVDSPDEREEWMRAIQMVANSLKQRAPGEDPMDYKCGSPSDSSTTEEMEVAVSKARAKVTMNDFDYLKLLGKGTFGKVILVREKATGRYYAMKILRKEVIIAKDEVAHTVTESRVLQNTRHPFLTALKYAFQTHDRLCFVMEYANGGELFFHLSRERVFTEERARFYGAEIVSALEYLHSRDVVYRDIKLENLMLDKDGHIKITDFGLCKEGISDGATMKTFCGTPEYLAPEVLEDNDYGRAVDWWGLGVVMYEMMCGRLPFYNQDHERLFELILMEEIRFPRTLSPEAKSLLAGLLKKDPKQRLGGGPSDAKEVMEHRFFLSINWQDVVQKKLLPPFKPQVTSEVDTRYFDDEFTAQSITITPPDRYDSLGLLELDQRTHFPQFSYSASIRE
Chain of Serine/threonine-protein kinase AKT (Homo sapiens) (Q9Y243 whole entry, looked up): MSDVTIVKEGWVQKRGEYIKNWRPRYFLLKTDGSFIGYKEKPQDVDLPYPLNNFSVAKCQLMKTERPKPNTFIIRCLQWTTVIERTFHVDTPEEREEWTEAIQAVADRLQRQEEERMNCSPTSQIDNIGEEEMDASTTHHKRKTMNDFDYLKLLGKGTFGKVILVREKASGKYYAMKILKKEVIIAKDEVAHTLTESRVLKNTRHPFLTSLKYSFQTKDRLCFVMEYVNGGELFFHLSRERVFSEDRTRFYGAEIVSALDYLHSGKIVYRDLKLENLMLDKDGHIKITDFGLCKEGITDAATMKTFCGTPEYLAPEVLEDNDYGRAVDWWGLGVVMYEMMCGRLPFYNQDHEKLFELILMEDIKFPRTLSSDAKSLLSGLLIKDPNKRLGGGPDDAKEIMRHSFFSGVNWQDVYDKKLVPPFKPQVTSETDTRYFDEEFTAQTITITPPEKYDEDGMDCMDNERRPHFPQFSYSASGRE

CC(=O)Oc1ccccc1/C=C/c1nccc2ccccc12
active: inhibition (SK-HEP1 [1]) | Activity (Huh-7) | inhibition [2] | Activity (SK-HEP1 [3])

— ChEMBL document CHEMBL5370544, “Design, synthesis, and biological evaluation of 1-styrenyl isoquinoline derivatives for anti-hepatocellular carcinoma activity and effect on mitochondria” (Eur J Med Chem, 2023)
